ChEMBL document CHEMBL1126495, “A new series of potent LTD4 antagonists in the styrylquinoline class” (Bioorg Med Chem Lett, 1993)

What follows are compounds tested against T1, Cysteinyl leukotriene receptor 1 (Cavia porcellus, UniProt Q2NNR5) (assay: Inhibition of [3H]LTD4 binding to guinea-pig lung membrane).
T1 sequence (Q2NNR5 whole entry): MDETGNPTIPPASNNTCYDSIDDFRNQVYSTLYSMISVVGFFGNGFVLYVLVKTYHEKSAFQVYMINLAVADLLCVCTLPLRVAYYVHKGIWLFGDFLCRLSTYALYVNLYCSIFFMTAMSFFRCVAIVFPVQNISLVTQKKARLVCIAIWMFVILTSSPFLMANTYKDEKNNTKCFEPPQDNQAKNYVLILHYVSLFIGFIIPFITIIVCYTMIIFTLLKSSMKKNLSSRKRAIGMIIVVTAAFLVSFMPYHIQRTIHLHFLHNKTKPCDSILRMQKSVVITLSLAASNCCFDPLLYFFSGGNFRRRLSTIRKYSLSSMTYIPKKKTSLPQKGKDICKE
Assay type: tissue-based

IC50 | Compound
1.3 nM | CC(C)(O)CCCSC(CCC(C)(C)CC(=O)O)c1cccc(/C=C/c2ccc3ccc(Cl)cc3n2)c1 (stereo not drawn)
0.5 nM | CC(CC[C@H](SCCCC(C)(C)O)c1cccc(/C=C/c2ccc3ccc(Cl)cc3n2)c1)CC(=O)O (stereo partly drawn)
1.4 nM | CC(C)(O)c1ccccc1CS[C@@H](CCC1(CC(=O)O)CC1)c1cccc(CCc2ccc3ccc(Cl)cc3n2)c1
1.9 nM | CC(C)(CC[C@@H](SCc1ccccc1C(C)(C)O)c1cccc(CCc2ccc3ccc(Cl)cc3n2)c1)CC(=O)O
0.6 nM | CC(C)(CC[C@H](SCc1ccccc1C(C)(C)O)c1cccc(CCc2ccc3ccc(Cl)cc3n2)c1)CC(=O)O
1 nM | CC(C)(CC[C@@H](SCc1ccccc1C(C)(C)O)c1cccc(/C=C/c2ccc3ccc(Cl)cc3n2)c1)CC(=O)O
0.6 nM | CC(C)(CC[C@H](SCc1ccccc1C(C)(C)O)c1cccc(/C=C/c2ccc3ccc(Cl)cc3n2)c1)CC(=O)O
1.6 nM | CC(C)(CC[C@H](SCc1ccccn1)c1cccc(CCc2ccc3ccc(Cl)cc3n2)c1)CC(=O)O
0.8 nM | C[C@H](CCC[C@@H](SCCC(C)(C)O)c1cccc(/C=C/c2ccc3ccc(Cl)cc3n2)c1)C(=O)O
2.2 nM | CC(C)(CC[C@H](SCCc1ccccn1)c1cccc(CCc2ccc3ccc(Cl)cc3n2)c1)CC(=O)O
2.3 nM | C[C@H](CCC[C@H](SCCC(=O)N(C)C)c1cccc(/C=C/c2ccc3ccc(Cl)cc3n2)c1)C(=O)O
0.9 nM | C[C@H](CCC[C@@H](SCCC(=O)N(C)C)c1cccc(/C=C/c2ccc3ccc(Cl)cc3n2)c1)C(=O)O
2 nM | C[C@H](CCC[C@H](SCCC(C)(C)O)c1cccc(/C=C/c2ccc3ccc(Cl)cc3n2)c1)C(=O)O
